According to patent US20220411480A1, “ANTITUMOR PEPTIDE AND USE THEREOF” (TOAGOSEI CO., LTD, priority 2018, published 2022):
Residues, ends and D or L forms follow the SMILES beside them.

Columns and labels:
[1] = tested on: human melanoma (A2058) cell lines; assay: Antitumor activity evaluation test (1), cell viability by Cell Counting Kit-8 (WST-8); format: cell-based; conditions: 48 hours, A2058 versus normal MCF-12F cells
Method: (§1) The antitumor activity of the sample peptides synthesized in Test Example 1 was evaluated using human-derived cultured tumor cells as targets.
(§2) Specifically, currently commercially available human melanoma (A2058) cell lines were used as test tumor cells. In addition, a normal human mammary epithelial cell culture line (MCF-12F) was used for comparison. Here, culture solutions of respective cells are as follows. • (1) A2058 cells:
(§3) DMEM culture medium including 2 mM L-glutamine, 0.1 mM of non-essential amino acids, 50 units/mL of penicillin, 50 μg/mL of streptomycin, and 10% fetal bovine serum (FBS) (product, commercially available from Wako Pure Chemical Industries, Ltd.). • (2) MCF-12F cells:
(§4) DMEM/F12 culture medium including 20 ng/mL of recombinant EGF, 10 μg/mL of insulin, 0.5 μg/mL of hydrocortisone, and 10% FBS (product, commercially available from Wako Pure Chemical Industries, Ltd.).
(§5) A2058 cells and MCF-12F cells were cultured and prepared so that the number of cells per well in a 96-well plate was about 5×10^3. An amount of the culture medium in this case was 100 μL per well.
(§6) Next, the 96-well plate was placed in a CO2 incubator and pre-incubated under conditions of 37° C. and 5% CO2 for about 1 day (21 hours to 24 hours).
(§7) Then, peptide-containing test culture mediums for each concentration were prepared so that the concentrations of the sample peptides to be evaluated were 12.5 μM and 25 μM, and supplied to wells (that is, wells after the pre-incubation) in which 90μL of cells to be evaluated were cultured in each well. Then, the 96-well plate was returned to the CO2 incubator and incubated under conditions of 37° C. and 5% CO2 for 48 hours.
(§8) Here, the number of test wells (n) at peptide concentrations in peptide addition test groups was set to 3. Therefore, the value of the result shown in the following table is an average value of the results obtained in three test wells. First, the cell viability (%) was determined as follows.
(§9) After the incubation for 48 hours was completed, the culture medium in each well was replaced with 100 μL of a fresh culture medium containing no peptide, and additionally, 10μL of a cell proliferation measurement reagent “Cell Counting Kit-8” (product, commercially available from Dojindo Molecular Technologies, Inc.) containing a “water-soluble tetrazolium salt (WST-8)” as a coloring reagent was added to each well. Then, the 96-well plate was returned to the CO2 incubator and incubated under conditions of 37° C., and 5% CO2 for 1.5 hours to 2 hours.
(§10) After the incubation was completed, the cell culture solution to which the reagent was added was collected and the cell viability (%) was evaluated according to a colorimetric method in which an absorbance at a wavelength of 450 nm (value corrected by the absorbance at a wavelength of 650 nm: A450-A650) was measured based on the reduction of the tetrazolium salt. Specifically, a measured value (measured absorbance) of a comparative test group in which the above incubation was performed for 48 hours simply in a culture medium containing no peptide was set as a cell viability of 100%, and the cell viability (%) was calculated from the measured absorbance of each test cell line as a relative value.
(§11) Specifically, a value (value multiplied by 100 for convenience) obtained by dividing the cell viability of target tumor cells (here, A2058 cells) when the sample peptides were added at a concentration of 12.5 μM or 25 μM measured as described above by the cell viability of comparative normal cells (here, MCF-12F cells) measured under the same conditions, that is,
(§12) {(A2058 cell viability)/(MCF-12F cell viability)}×100 was calculated as a specific cell viability of the tumor cells, and the test tumor cells selective antitumor activity with respect to normal cells was evaluated using such a specific cell viability as an index.

[2] = as above; format: cell-based, human; conditions: peptide 25 μM, 48 hours, relative to culture medium containing no peptide = 100%; read-out: A2058 cell viability (survival rate)
Method: as §1, §2, §3, §4, §5, §6, §7, §8, §9, §10, §11, §12

Row | SMILES | Specific cell viability {(A2058 cell viability)/(MCF-12F cell viability)}×100 ([1]; peptide 12.5 μM) | Specific cell viability {(A2058 cell viability)/(MCF-12F cell viability)}×100 ([1]; peptide 25 μM) | viability [2]
1 | CSCC[C@H](NC(=O)[C@H](C)N)C(=O)N[C@@H](Cc1ccc(O)cc1)C(=O)N[C@@H](CC(C)C)C(=O)N[C@@H](Cc1ccccc1)C(=O)N[C@@H](CC(C)C)C(=O)NCC(=O)N[C@@H](CC(N)=O)C(=O)N[C@@H](CC(C)C)C(=O)N[C@@H](C)C(=O)N[C@@H](C)C(=O)N[C@@H](CO)C(=O)N[C@@H](CC(=O)O)C(=O)N[C@@H](CC(C)C)C(=O)N[C@@H](CC(C)C)C(=O)N[C@@H](C)C(=O)NCC(=O)N[C@H](C(=O)N[C@@H](C)C(=O)N[C@@H](Cc1ccccc1)C(=O)N[C@H](C(=O)N[C@@H](C)C(=O)N[C@@H](CC(N)=O)C(=O)N[C@H](C(=O)N[C@@H](CC(C)C)C(=O)N[C@@H](CC(C)C)C(=O)N[C@@H](CO)C(=O)NCC(=O)N[C@@H](CO)C(=O)N[C@@H](CCCNC(=N)N)C(=O)N[C@@H](CCCCN)C(=O)N[C@@H](CCCCN)C(=O)N[C@@H](CCCNC(=N)N)C(=O)N[C@@H](CCCNC(=N)N)C(=O)N[C@@H](CCC(N)=O)C(=O)N[C@@H](CCCNC(=N)N)C(=O)N[C@@H](CCCNC(=N)N)C(=O)N[C@@H](CCCNC(=N)N)C(N)=O)[C@@H](C)O)C(C)C)C(C)C [Sample 1] (H-AMYLFLGNLAASDLLAGVAFVANTLLSGSRKKRRQRRR-NH2; N-terminus assumed) | 114.85 | 16.67 | 0.7%
2 | CC(C)C[C@H](NC(=O)CNC(=O)[C@H](CCC(=O)O)NC(=O)[C@H](CCCNC(=N)N)NC(=O)[C@H](CC(C)C)NC(=O)[C@H](Cc1ccccc1)NC(=O)[C@@H](N)Cc1c[nH]c2ccccc12)C(=O)N[C@@H](CC(C)C)C(=O)N[C@@H](Cc1ccccc1)C(=O)N[C@H](C(=O)N[C@@H](C)C(=O)N[C@@H](CC(C)C)C(=O)N[C@@H](C)C(=O)N[C@@H](C)C(=O)N[C@@H](CO)C(=O)N[C@H](C(=O)N[C@@H](Cc1ccccc1)C(=O)N[C@@H](CO)C(=O)N[C@@H](CC(C)C)C(=O)N[C@@H](CC(C)C)C(=O)N[C@@H](Cc1ccccc1)C(=O)N[C@@H](CCCNC(=N)N)C(=O)N[C@@H](CCCCN)C(=O)N[C@@H](CCCCN)C(=O)N[C@@H](CCCNC(=N)N)C(=O)N[C@@H](CCCNC(=N)N)C(=O)N[C@@H](CCC(N)=O)C(=O)N[C@@H](CCCNC(=N)N)C(=O)N[C@@H](CCCNC(=N)N)C(=O)N[C@@H](CCCNC(=N)N)C(N)=O)[C@@H](C)O)[C@@H](C)O [Sample 3] (H-WFLREGLLFTALAASTFSLLFRKKRRQRRR-NH2; N-terminus assumed) | 68.20 | 25.41 | 4.6%
3 | CC[C@H](C)[C@H](NC(=O)[C@H](Cc1ccccc1)NC(=O)CNC(=O)[C@H](Cc1ccc(O)cc1)NC(=O)[C@@H](N)C(C)C)C(=O)NCC(=O)N[C@@H](CC(C)C)C(=O)N[C@@H](CS)C(=O)N[C@@H](Cc1c[nH]c2ccccc12)C(=O)N[C@@H](CC(C)C)C(=O)N[C@@H](CC(C)C)C(=O)N[C@@H](C)C(=O)N[C@@H](C)C(=O)N[C@@H](CC(C)C)C(=O)N[C@@H](CC(C)C)C(=O)NCC(=O)N[C@@H](CCSC)C(=O)N[C@@H](CC(C)C)C(=O)N1CCC[C@H]1C(=O)N[C@@H](CC(C)C)C(=O)N[C@@H](CC(C)C)C(=O)N[C@@H](CCCNC(=N)N)C(=O)N[C@@H](CCCCN)C(=O)N[C@@H](CCCCN)C(=O)N[C@@H](CCCNC(=N)N)C(=O)N[C@@H](CCCNC(=N)N)C(=O)N[C@@H](CCC(N)=O)C(=O)N[C@@H](CCCNC(=N)N)C(=O)N[C@@H](CCCNC(=N)N)C(=O)N[C@@H](CCCNC(=N)N)C(N)=O [Sample 4] (H-VYGFIGLCWLLAALLGMLPLLRKKRRQRRR-NH2; N-terminus assumed) | 46.80 | 35.10 | 5.3%
4 | CC[C@H](C)[C@H](NC(=O)[C@H](C)NC(=O)[C@H](CC(C)C)NC(=O)[C@H](CC(C)C)NC(=O)[C@H](CO)NC(=O)[C@H](CC(C)C)NC(=O)[C@@H](NC(=O)[C@H](CO)NC(=O)[C@H](C)NC(=O)[C@@H](NC(=O)[C@H](CC(C)C)NC(=O)[C@H](C)NC(=O)[C@@H](NC(=O)[C@H](Cc1ccccc1)NC(=O)[C@@H](NC(=O)CNC(=O)CNC(=O)[C@@H](N)CCC(=O)O)C(C)C)C(C)C)[C@@H](C)O)C(C)C)C(=O)N[C@@H](C)C(=O)N[C@@H](CC(C)C)C(=O)N[C@@H](CCC(=O)O)C(=O)N[C@@H](CCCNC(=N)N)C(=O)N[C@@H](CCCCN)C(=O)N[C@@H](CCCCN)C(=O)N[C@@H](CCCNC(=N)N)C(=O)N[C@@H](CCCNC(=N)N)C(=O)N[C@@H](CCC(N)=O)C(=O)N[C@@H](CCCNC(=N)N)C(=O)N[C@@H](CCCNC(=N)N)C(=O)N[C@@H](CCCNC(=N)N)C(N)=O [Sample 5] (H-EGGVFVALTASVLSLLAIALERKKRRQRRR-NH2; N-terminus assumed) | 88.08 | 10.09 | 5.5%
